The values below come from US20090054450A1, “COMPOSITIONS AND METHODS OF USE FOR TREATING OR PREVENTING LIPID RELATED DISORDERS” (IRONWOOD PHARMACEUTICALS, INC., priority 2007, published 2009).

In series [1] the test system is rat high fat, high cholesterol diet model. As to the kind of experiment: Rat High Fat, High Cholesterol Diet Model. The format is in vivo. As to conditions: HFHC diet rats; for HDL / LDL / VLDL: once daily perorally for seven days, serum VAP analysis, compound 13 at 3, 10, 30 mg/kg; for HDL / LDL / VLDL / blood glucose: compound 10A at 3, 10, or 30 mg/kg, compound 5A at 100 mg/kg; for blood glucose: seven days dosing. On the procedure: Fibrate and statin derivatives, alone and in combination, are tested for effects on cholesterol and lipid profiles in a rat high fat diet model for example as described in Ghibaudi et al. (2002) Obes Res 10:956-63, Ricci and Levin (2003) Am J Physiol Regul Integr Comp Physiol 285:R610-8, and Gao et al. (2002) 936:87-90. Alternatively, animals are fed either a normal diet or a chow supplemented with added fat and/or cholesterol as described in Krause et al (1994) Pharm Res Vol 29, No. 4, Nishina (1993) J of Lipid Res vol 43. and Gajda et al. (2007) Animal Lab News. Based on the specific chows used in these reports, we fed animals a diet consisting of 40% fat, 1% cholesterol, and 0.5% cholic acid (catalog #D01061201, Research Diets, New Brunswick, N.J. 08901). After at least a week on this diet, animals (6-8/group) are dosed once daily perorally with 300 uL test compounds in PEG 400 or suitable vehicle. Groups are dosed for at least one week before whole blood samples are taken for analysis. Blood serum is analyzed using Vertical Auto Profile (VAP; Atherotech, Inc., Birmingham, Ala.) analysis similar to as described in Kulkami (2006) Clin Lab Med 26:787-802.
Similarly, when tested in this assay, Compound 5A [(E)-4-(3,5-dimethoxystyryl)phenyl 2-(4-(4-chlorobenzoyl)phenoxy)-2-methylpropanoate] was associated with decreased LDL and VLDL, no change in blood glucose, and increased HDL. Graphical depictions showing the LDL, VLDL and HDL analyses for compounds 10A and 5A are shown in FIGS. 1, 2, and 3 respectively. Compound 13 (4-(nitrooxy)butyl 2-(4-(4-chlorobenzoyl)phenoxy)-2-methylpropanoate) was also tested in this assay. FIGS. 4-6 are graphs showing that Compound 13 decreased LDL (FIG. 4) and VLDL (FIG. 5) and increased HDL (FIG. 6). Fenofibrate was also tested in this assay at 2, 6.8 and 20.5 mg/kg (FIGS. 4-6) which are equimolar equivalents (for the fenofibric acid moiety) of Compound 10A dosed at […]. Similar untested dose equivalent amounts to Compound 13 at 3, 10, and 30 mg/kg would be 2.5, 8.3, and 24.8 mg/kg of fenofibrate. In these experiments animals (n=6 per group) were fed either a normal chow (chow) or high fat high cholesterol chow (HFHC; 40% fat, 1% cholesterol, 0.5% cholic acid) diet for one week before test compound administration. Animals received either no test compound (“naïve”), vehicle only (PEG 400) or test compound (compound 10A at 3, 10, or 30 mg/kg, compound 5A at 100 mg/kg, compound 13 at 3, 10, 30 mg/kg, or fenofibrate at 2, 6.8, or 20.5 mg/kg) for seven days before whole blood samples were taken for analysis. […] Compound 8A may be useful for another contemplated use described herein however.

The test system of series [2] is ob/ob mice. As to conditions: fenofibrate 100 mg/kg; McCarmona et al. (2005); cited from earlier work.
The subject of series [3] is ob/ob mice. In words: Obese (ob/ob) Mouse Model, blood glucose. The format is in vivo. As to conditions: ob/ob mice on high fat chow, perorally once daily for three weeks, days 7, 14, 21; Compound 10A 30 and 100 mg/kg, Compound 121 43 or 1000 mg/kg, fenofibrate 68 mg/kg. On the procedure:
The increased expression of plasma lipids in ob/ob mice make them a useful model for the study of drugs designed to lower cholesterol. In these experiments animals (n=10 per group) were fed a high fat chow (HF; 60% fat,) for one week before test compound administration and continued on this diet for the duration of the experiment. Animals received either vehicle only (PEG 400), or test compound (Compound 121 (resveratrol) at 43 or 1000 mg/kg, Compound 10A at 30 or 100 mg/kg, or fenofibrate at 68 mg/kg) perorally once daily for a total of three weeks. Blood samples were collected weekly for the determination of fasting glucose levels (One touch Ultra, LifeScan Inc). Blood serum was analyzed after three weeks using Vertical Auto Profile (VAP; Atherotech, Inc., Birmingham, Ala.) analysis similar to as described in Kulkami (2006) Clin Lab Med 26:787-802. […] 43 mg/kg of compound 121 (resveratrol) and 68 mg/kg of fenofibrate are the equimolar equivalents to the amounts of resveratrol and fenofibric acid moieties in 100 mg/kg of Compound 10A. […] FIG. 8 is a pharmacokinetic profile (using the methodologies as described herein) analyzing fenofibric acid levels in blood plasma of ob/ob mice dosed with either 68 mg/kg of fenofibrate, or 30 mg/kg or 100 mg/kg of Compound 10A.

Series [4] in a line: Pharmacokinetic profile in blood plasma of ob/ob mice (LC/MS-MS). The format is in vivo, mouse. The method, then:
The increased expression of plasma lipids in ob/ob mice make them a useful model for the study of drugs designed to lower cholesterol. In these experiments animals (n=10 per group) were fed a high fat chow (HF; 60% fat,) for one week before test compound administration and continued on this diet for the duration of the experiment. Animals received either vehicle only (PEG 400), or test compound (Compound 121 (resveratrol) at 43 or 1000 mg/kg, Compound 10A at 30 or 100 mg/kg, or fenofibrate at 68 mg/kg) perorally once daily for a total of three weeks. Blood samples were collected weekly for the determination of fasting glucose levels (One touch Ultra, LifeScan Inc). Blood serum was analyzed after three weeks using Vertical Auto Profile (VAP; Atherotech, Inc., Birmingham, Ala.) analysis similar to as described in Kulkami (2006) Clin Lab Med 26:787-802. […]
(§1) Various pharmacokinetic parameters were calculated by collecting plasma samples from animals dosed with a test compound and analyzed by LC/MS-MS. […] Concentrations were determined by relative responses to an internal standard and calculated based on a standard concentration curve of the test compound. […] Oral Bioavailability (Fn) was calculated using the equation: F=(AUCoral/AUCIV)*DoseIV.Doseoral). Cmax and Tmax are determined by visual inspection of the oral concentration curve. […]

The nature of series [5]: Pharmacokinetics in rat high fat high cholesterol diet model (LC/MS-MS). Type of series: in vivo. The following applies: oral administration, vs compound 121 (resveratrol). The method, then: Similarly, when tested in this assay, Compound 5A [(E)-4-(3,5-dimethoxystyryl)phenyl 2-(4-(4-chlorobenzoyl)phenoxy)-2-methylpropanoate] was associated with decreased LDL and VLDL, no change in blood glucose, and increased HDL. Graphical depictions showing the LDL, VLDL and HDL analyses for compounds 10A and 5A are shown in FIGS. 1, 2, and 3 respectively. Compound 13 (4-(nitrooxy)butyl 2-(4-(4-chlorobenzoyl)phenoxy)-2-methylpropanoate) was also tested in this assay. FIGS. 4-6 are graphs showing that Compound 13 decreased LDL (FIG. 4) and VLDL (FIG. 5) and increased HDL (FIG. 6). Fenofibrate was also tested in this assay at 2, 6.8 and 20.5 mg/kg (FIGS. 4-6) which are equimolar equivalents (for the fenofibric acid moiety) of Compound 10A dosed at […]. Similar untested dose equivalent amounts to Compound 13 at 3, 10, and 30 mg/kg would be 2.5, 8.3, and 24.8 mg/kg of fenofibrate. […]
as §1

Molecules are shown by their SMILES.

Broadly, the melting point is the temperature, or range, at which the solid turns liquid. As for `CC(=O)Oc1cc(/C=C/c2ccc(OC(=O)C(C)(C)Oc3ccc(C(=O)c4ccc(Cl)cc4)cc3)cc2)cc(OC(C)=O)c1` [Compound 8A, (E)-5-(4-(2-(4-(4-chlorobenzoyl)phenoxy)-2-methylpropanoyloxy)styryl)-1,3-phenylene diacetate], the melting point is 112 to 113 °C. Besides, the “efficacy in rat high fat, high cholesterol diet model” value in series [1] was “does not show any efficacy”.
For the compound `CC(C)(Oc1ccc(C(=O)c2ccc(Cl)cc2)cc1)C(=O)OCCCCO[N+](=O)[O-]` [Compound 13, 4-(nitrooxy)butyl 2-(4-(4-chlorobenzoyl)phenoxy)-2-methylpropanoate], in series [1], the HDL result is on record as “increased”, the LDL result is given as “decreased” and the VLDL result is “decreased”.
Consider `CC(C)OC(=O)C(C)(C)Oc1ccc(C(=O)c2ccc(Cl)cc2)cc1` [fenofibrate, 2-[4-(4-chlorobenzoyl)phenoxy]-2-methyl-propanoic acid, 1-methylethyl ester], for which the “blood glucose in ob/ob mice” value in series [2] is given as “shown to decrease blood glucose”. For the same compound, the “blood glucose (fasting), change compared to day 0” value (“blood glucose (fasting), change” below) in series [3] was “neither Compound 121 (resveratrol; dosed at 43 or 1000 mg/kg) or fenofibrate (dosed at 68 mg/kg) resulted in statistically significant changes”.
`COc1cc(/C=C/c2ccc(OC(=O)C(C)(C)Oc3ccc(C(=O)c4ccc(Cl)cc4)cc3)cc2)cc(OC)c1` [Compound 5A, (E)-4-(3,5-dimethoxystyryl)phenyl 2-(4-(4-chlorobenzoyl)phenoxy)-2-methylpropanoate]: in series [1], the HDL entry is recorded as “increased”, the LDL result was “decreased”, the VLDL entry was “decreased” and the blood glucose result was “no change”.
In the case of `Oc1ccc(/C=C/c2cc(O)cc(O)c2)cc1` [Compound 121, (E)-5-(4-hydroxystyryl)benzene-1,3-diol], the “blood glucose (fasting), change” value in series [3] is “neither Compound 121 (resveratrol; dosed at 43 or 1000 mg/kg) or fenofibrate (dosed at 68 mg/kg) resulted in statistically significant changes”.
Turning to `CC(C)(Oc1ccc(C(=O)c2ccc(Cl)cc2)cc1)C(=O)Oc1ccc(/C=C/c2cc(O)cc(O)c2)cc1.Cl` [Compound 10A, (E)-4-(3,5-dihydroxystyryl)phenyl 2-(4-(4-chlorobenzoyl)phenoxy)-2-methylpropanoate], the “fenofibric acid exposure in blood plasma” value in series [4] (ob/ob mice, 30 mg/kg Compound 10A as compared to 68 mg/kg fenofibrate) was “less fenofibric acid exposure”. Besides, the resveratrol pharmacokinetic profile entry in series [4] (obese mouse model, oral administration, 100 mg/kg Compound 10A vs 43 mg/kg compound 121 (resveratrol)) is on record as “different resveratrol pharmacokinetic profile”. Also, in series [1], the HDL entry is recorded as “increased”, the LDL result was “dose related decreases”, the VLDL result was “dose related decreases” and the blood glucose result was “decreased”. In series [3], the “blood glucose (fasting), change” value was “statistically significant (when compared to day 0) decreases”. The resveratrol pharmacokinetic profile result in series [5] is recorded as “different resveratrol pharmacokinetic profile”.
